Molecules are shown by their SMILES. Entries after “also recorded” stand apart in the source; their conditions may differ.

Data set [1] relates to Chinese hamster V79-379 cells. Kind of data set: Growth delay of V79 cultures after red light (Table 1). In kind it is cell-based. On the procedure:
(§1) Chinese hamster V79-379 lung fibroblasts were grown in monolayer culture in McCoy's 5A medium (Gibco Laboratories, Grand Island, N.Y.) augmented with 10% calf serum and buffered with 20 mM HEPES (pH 7.4).
(§2) The cells were treated with 1 μM AlPcCl (from Eastman Kodak, Rochester, N.Y.) or with phthalocyanine compositions I-VI (0.5-1.0 μM final concentration in the medium) for 18 hours by adding the appropriate volume of a 1.0 mM stock solution in dimethylformamide (DMF) to the culture medium. The growth medium was replaced with 4 ml Hank's balanced salt solution (HBSS), and the cells were irradiated. The light source was a 500 W tungsten-halogen lamp located approximately 29 inches below the surface of a glass exposure tray. The visible light administered to the cells was filtered to allow passage of only that portion of the visible spectrum above 600 nm (Lee Primary red filter No. 106, Vincent Lighting, Cleveland, Ohio). The fluence rate was approximately 0.074 kJ/m^2 /s at the level of the cell monolayer.
At the time of light exposure, there were approximately 1.5×10^5 cells per 25 cm^2 flask. Following irradiation, the HBSS was replaced by 10 ml of fresh complete growth medium, and the cultures were returned to the 37° C. incubator. At various times before and after irradiation, duplicate cultures were trypsinized and counted. Controls included untreated cells and cells treated with light alone or drug alone. In addition, in each experiment, the drug to be tested was compared to a standard treatment, i.e. 1 μM AlPcCl for 18 hours followed by 12 kJ/m^2 light.
The inhibition of V79 culture growth was measured during a three day period following red light irradiation (12 kJ/m^2) of phthalocyanine-pretreated cells. With each of the active compounds, as well as with AlPcCl, there was an initial decrease in cell density, as dead cells became detached from the monolayer. Thereafter, the cell number per flask increased, as living cells grew and divided. The time for the cell density to recover to the level at the time of light exposure was considered the growth delay. […] The ratio of the growth delay for the test photosensitizer and the growth delay for AlPcCl measured in the same experiment is recorded in Table 1.

Data set [2] relates to Chinese hamster V79-379 cells. Kind of data set: Clonogenic cell survival / photocytotoxicity in V79 cells (Table 1, FIG. 1, FIG. 2). In kind it is cell-based. The settings on record: for CF10 (AlPcCl)/CF10 (Pc) / F10 (AlPcCl)/F10 (Pc): 18 h; for photosensitizing efficiency / photocytotoxicity (in words): V79 cells, red light. As to the method:
FIG. 1 is a graph illustrating the photodynamic efficacy of the various compositions of the present invention in comparison to AlPcCl. The phthalocyanine composition compounds of the present invention were tested for their photodynamic efficiency against Chinese hamster fibroblast V79 cells by colony formation. Monolayer cultures were treated with the indicated phthalocyanine composition for 18 hours, irradiated with various fluences of red light, and immediately trypsinized and replated at appropriate aliquots in triplicate. Colonies of at least 50 cells were counted after 7-10 days. The plating efficiency of the untreated cells was approximately 90%.
In this regard, in FIG. 2 the data of FIG. 1 were replotted as a function of the product of the amount of cell-associated phthalocyanine and the light fluence.
as §1, §2
Cells were irradiated at a density of approximately 2×10^6 per 25 cm^2 flask. Immediately after irradiation, the cell monolayer was treated with trypsin, and appropriate aliquots were plated in triplicate to give 100 to 200 colonies in each 10-cm Petri dish. Cell survival was determined by the ability of the cells to form colonies containing at least 50 cells. The response of cells treated with 1 μM AlPcCl and light was compared in each experiment.
Photocytotoxicity of the phthalocyanines compounds I to VI was also assessed by clonogenic assay (Table 1, FIG. 1). In all experiments, 1 μM AlPcCl was included for comparison purposes. From the survival curves (FIG. 1), the fluence reducing the cell survival to 10% (F10) was obtained. The ratio of the F10 for AlPcCl and the F10 for the test compound is recorded in Table 1.
In order to take differences in cellular uptake into consideration in the assessment of the relative efficiency of these phthalocyanines as photosensitizers of V79 cells, the survival data were replotted against the product of intracellular phthalocyanine concentration and light fluence (FIG. 2). From these curves, the product of intracellular concentration and light fluence reducing survival to 10% (CF10) was obtained, and comparisons of the values for AlPcCl and the test compounds are recorded in Table 1.

The test system of the next data set is RIF-1 tumors. Kind of data set: PDT of RIF-1 implanted tumors with PcIV and multiple exposures to light (Table 8). In kind it is in vivo, C3H/HeN mice. To be noted: for % of Mice Surviving: 1 mg/kg. As to the method:
To overcome the regrowth, RIF-1 tumors were implanted in C3H/HeN mice, and the mice were treated with PcIV followed by multiple exposures to light. For multiple exposures to light to be successful, the tumor tissue must retain sufficient levels of the photosensitizer over the exposure period.
Thereafter, the tumors were irradiated with an argon ion pumped dye laser tuned at 675 nm for the total light dose of 135 J/cm^2 (75 mW/cm^2).

Data set [3] in a line: Retention in tumor tissue (pharmacokinetics). To be noted: in vivo.

For the compound `CN(C)CCC[Si](C)(C)O[Si]1(O)n2c3c4ccccc4c2N=C2N=C(N=c4c5ccccc5c(n41)=NC1=NC(=N3)c3ccccc31)c1ccccc12` (centres unmarked) [Compound IV, HOSiPcOsi(CH3)2)(CH2)3 N(CH3)2], in data set [1] (0.5 μM, 18 h, 12 kJ/m^2 red light), the “Growth Delay, efficiency relative to 1 μM AlPcCl” value is recorded as > 3. For the same compound, the “inhibition of V79 culture growth (in words)” value in data set [1] (red light 12 kJ/m^2, three day period) was “substantial inhibition”. The “CF10 (AlPcCl)/CF10 (Pc)” value in data set [2] (0.5 μM) worked out at 3.9; in data set [2] (1.0 μM, CF10 = intracellular concentration x fluence reducing survival to 10%) it was 3.5. Also, the “F10 (AlPcCl)/F10 (Pc)” value amounted to 1.85 in data set [2] (0.5 μM) and 4.25 in data set [2] (1.0 μM, F10 = fluence reducing survival to 10%). The “photosensitizing efficiency / photocytotoxicity (in words)” value in data set [2] is “almost twice as efficient as the standard AlPcCl; also recorded: most efficient photosensitizer”; in data set [2] (listed as SiPc(OH)(OSi(CH3)2 (CH2)3 N(CH3)2)), “most efficient photosensitizer, as judged by uptake, growth delay, and photocytotoxicity”. Also, the “% of Mice Surviving” value in the data set with RIF-1 tumors (360 h) was found to be 100%; in the data set with RIF-1 tumors (2880 h), 0%; in the data set with RIF-1 tumors (DPPC liposomes, 30 days, exposure day 2), 100%; with RIF-1 tumors (corn oil, 15 days, exposure day 2), 100%; in the data set on RIF-1 tumors (corn oil, 15 days, exposure days 2-6) it was 100%. Moreover, the tumor regrowth entry with RIF-1 tumors (DPPC liposomes, 30 days after PDT, irradiated only one or two times) was “Tumor regrowth occurred 30 days after photodynamic therapy”; with RIF-1 tumors (DPPC liposomes, 120 days after PDT, three to five exposures), “No tumor regrowth occurred even at 120 days”; in the data set on RIF-1 tumors (DPPC liposomes, 300 days after light treatment), “no evidence of tumor regrowth”; in the data set on RIF-1 tumors (corn oil, 15 days after PDT, all multiple exposure protocols), “regrowth of tumors was evident 15 days after photodynamic therapy in all the multiple exposure protocols”. Also, in the data set on RIF-1 tumors (DPPC liposomes, irradiated three, four or five times at 24 hour interval), the tumor cure entry is “complete tumor cure was evident”. For the same compound, the “retention in tumor tissue after administration” value in data set [3] is ≥ 7 days. Further, in “Solubility”, the solubility in solvents result is “soluble in CH2 Cl2 and toluene”.

Values taken from patent US5484778A, “Phthalocyanine photosensitizers for photodynamic therapy and methods for their use” (priority 1993, dated 1996).
